SMILES | melting point [°C]
CCN1CCN(C(=O)c2ccc(C(=O)N3CCN(c4ncccc4NC(C)C)CC3)cc2)CC1 | 130 to 131
COc1ccc2[nH]c3c(c2c1)CC(N(C)C)CC3 (centres undefined) | 126 to 128
CC(C)Nc1cccnc1N1CCN(C(=O)c2ccc(C(=O)N3CCN(CCOCCO)CC3)cc2)CC1 | 92 to 93
CC(C)(C)OC(=O)C(C#N)=C(NCCCN1CCCCCC1=O)Nc1cc(C(F)(F)F)cc(C(F)(F)F)c1 | 167 to 168
Cc1nn(-c2cc(OC(F)F)n(C)n2)c(-c2ccc(Cl)cc2)c1CC(=O)O | 112
COc1ccc2c(c1)CCC1C2CCC2(C)C(=O)C(C)CC12 (centres undefined) | 115 to 116
COC(=O)COc1ccccc1Oc1cc(NC(=O)CC(O)(O)C(F)(F)F)c(F)cc1Cl | 165
CC(C)CCc1ccc(C(=S)CC#N)cc1 | 62 to 63
COc1ccc(C(F)(F)C(F)(F)F)cc1-c1csc(N)n1 | 125
CCCCNC(=O)NS(=O)(=O)c1ccc(CCNC(=O)N2Cc3c(Cl)cc(Cl)cc3C2=O)cc1 | 190 to 192
Cn1cc(C(=O)O)cc1Cl | 201 to 203
CC(=O)Nc1ccc(-c2ccccc2C#N)cc1C | 135 to 143
CN1CCc2ccn(S(=O)(=O)c3ccccc3)c2C(c2ccccc2)C1 (centres undefined) | 115 to 116
Cc1ccc(S(=O)(=O)c2ncc(I)cn2)cc1 | 138 to 139
C=CCc1c(F)ccc2c3c([nH]c12)C(CC)(CC(=O)O)OCC3 (centres undefined) | 123 to 125
O=C1Nc2c(ccc3ccccc23)SC1=Cc1ccc(Cl)cc1 | 277 to 279
c1cc2c3c(c1)nc(SCc1ccncc1)n3CCC2 | 105 to 107
O=[N+]([O-])c1cc(F)ccc1OCCCCl | 143
CCOCC1OC(n2cnc3c(NC4CCCC4)nc(Cl)nc32)C(O)C1O (centres undefined) | 114 to 116
COP(=S)(OC)Oc1nsc(-c2ccccc2)c1C#N | 40
Cn1cncc1C(O)(c1ccc(Cl)nc1)c1ccc2noc(-c3cccc(Cl)c3)c2c1 (centres undefined) | 230
O=C(CCCN1CCCC(c2cccc(O)c2)C1)c1ccc(F)cc1 (centres undefined) | 77 to 78
COc1ccc2cc(C#N)c(=O)oc2c1C | 215
CCOC(=O)c1cn(-c2cc(NC(=O)OC(C)(C)C)c(F)cc2F)c2c(C)c(F)c(F)c(C)c2c1=O | 141 to 142
CC1(C)NC(=O)N(c2ccc([N+](=O)[O-])c(C(F)(F)F)c2)C1=N | 168
CCCCCCCCCCCc1nnc2n1-c1ccccc1C(c1ccccc1)OC2 (centres undefined) | 83 to 84
COc1cc2c(c3c1OC(C)(C)C3)C(c1ccn(Cc3ccc(C(=O)Nc4ccncc4)cc3)c(=O)c1)=NC(C)(C)C2 | 144 to 146
CCCn1nc2c(N)nc3ccccc3c2c1CCCCCl | 172 to 173
COc1cc2sc(C3=NNC(=O)CC3C)cc2cc1OCCCN1CCCCC1 (centres undefined) | 198 to 200

The remaining lines, values ahead:

melting point [°C] | SMILES
86 to 87 | FC(F)(F)c1ccc2c(c1)ncn2-c1cccc(I)c1
246 | CCOC(=O)N1C(=O)C(C)(C)c2cc(C3=NNC(=O)SC3C)ccc21 (centres undefined)
142 to 143 | CC(=O)Nc1c(C)c2c(c(C)c1N(C)C)OC(C)(C)C2
172 | Cc1cccc(-c2sc(N)nc2-c2ccnc(-c3ccc(OCC(=O)N4CCOCC4)cc3)c2)n1
111 to 113 | OCc1cc(-c2ccc(C(F)(F)F)cc2)on1
225 to 228 | NC(=O)CN1C(=O)[C@@H](N)[C@H](c2ccccc2)Sc2cc(Cl)ccc21 (relative stereo)
293 to 295 | CC1(N)CN(c2cc3c(cc2F)c(=O)c(C(=O)O)cn3C2CC2)C1
147 to 149 | O=C(Nc1cc([N+](=O)[O-])cc([N+](=O)[O-])c1)C1CC1
108 | CCOC(=O)N(CCN(C(=O)OCC)C1CCCCC1)C1CCCCC1
212 to 214 | NC(=O)c1cccc(-c2nc(-c3ccccc3)c(-c3nc4ccccc4c(=O)n3-c3ccccc3Cl)s2)c1
117 to 119 | CC1CC(=O)c2c(ccc(F)c2Cl)N1 (single isomer, unassigned; (-))
51 to 56 | CCOP(=O)(CC(=O)NC1CC1)OCC
136 | N#Cc1ccc(NN)cc1F
142 | CNc1cc(N)c(CCCN)c2c1C(=O)c1ccccc1C2=O
68 to 71 | CC(C)CCC(=O)N[C@@H](Cc1ccccc1)C(=O)CSCc1ccco1
215 to 216 | COc1ccccc1N1CCN(CC(=O)Nc2ccc3c(c2NC(=O)c2ccc(C)cc2)C(=O)c2ccccc2C3=O)CC1
167 to 169 | CC(C)(C)COc1ccc(NC(=O)c2ccn(-c3ccc(F)cc3)c2)cc1C#N
107 to 110 | CC(=O)OC(C)N1C(=O)/C(=C\c2[nH]c(C)cc2C)c2ccccc21 (centres undefined)
127 to 129 | Cc1c(Br)c(=O)n(-c2cc(C(=O)OC(C)C)c(Cl)cc2F)c(=O)n1C
132 | Cc1cnc(CCCC#N)c(O)c1
